Each structure is given as a SMILES string. In brackets after ≈: the same amount, converted by molar mass.

The values below come from ChEMBL document CHEMBL3352786, “Structure-based design and optimization of potent inhibitors of the adenoviral protease” (Bioorg Med Chem Lett, 2015).

Series [1] can be described thus: Permeability of the compound by PAMPA. In kind it is ADME. On the technique in general: PAMPA measures passive passage across an artificial lipid membrane.
Series [2] concerns adenain (human adenovirus serotype 8). Description: Inhibition of human adenovirus serotype 8 adenain protease expressed in Escherichia coli […] (DE3) using Ac-WLRGG*ARC(PT14)-NH2 as substrate by FLT assay.
Series [3] relates to adenain (human adenovirus serotype 5). Description: Inhibition of human adenovirus serotype 5 adenain protease expressed in Escherichia coli […] (DE3) using Ac-WLRGG*ARC(PT14)-NH2 as substrate by FLT assay.
Series [4] in a line: Equilibrium solubility of the compound at pH 6.8. In kind it is physicochemical. The settings on record: buffer.
In another series the target is Dipeptidyl peptidase 1 (Homo sapiens, UniProt P53634).
For another series, the target named is Cathepsin B (Homo sapiens, UniProt P07858).
A further series has as its target Procathepsin L (Homo sapiens, UniProt P07711).
The target of the next series is Cathepsin S (Homo sapiens, UniProt P25774).
A further series deals with T1, Cathepsin K (Homo sapiens, UniProt P43235).
T1 sequence (P43235 whole entry): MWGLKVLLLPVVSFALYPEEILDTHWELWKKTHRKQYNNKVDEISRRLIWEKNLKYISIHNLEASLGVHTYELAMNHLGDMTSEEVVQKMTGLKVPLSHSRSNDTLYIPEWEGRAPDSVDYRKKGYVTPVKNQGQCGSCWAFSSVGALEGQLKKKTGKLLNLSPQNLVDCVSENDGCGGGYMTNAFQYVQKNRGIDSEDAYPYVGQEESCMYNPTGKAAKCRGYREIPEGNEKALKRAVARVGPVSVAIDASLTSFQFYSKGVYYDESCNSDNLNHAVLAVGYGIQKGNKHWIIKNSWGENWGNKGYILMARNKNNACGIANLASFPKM

The next series relates to Human adenovirus 5. Description: Antiviral activity against human adenovirus 5 infected in HEK293 cells assessed as reduction in viral induced cytopathogenicity incubated for 5 days by Celltiter-Glo luminescent cell viability assay. In kind it is functional, organism-based. The settings on record: Human mastadenovirus C, HEK293, 120 h.

Chain of Cathepsin S (P25774 whole entry): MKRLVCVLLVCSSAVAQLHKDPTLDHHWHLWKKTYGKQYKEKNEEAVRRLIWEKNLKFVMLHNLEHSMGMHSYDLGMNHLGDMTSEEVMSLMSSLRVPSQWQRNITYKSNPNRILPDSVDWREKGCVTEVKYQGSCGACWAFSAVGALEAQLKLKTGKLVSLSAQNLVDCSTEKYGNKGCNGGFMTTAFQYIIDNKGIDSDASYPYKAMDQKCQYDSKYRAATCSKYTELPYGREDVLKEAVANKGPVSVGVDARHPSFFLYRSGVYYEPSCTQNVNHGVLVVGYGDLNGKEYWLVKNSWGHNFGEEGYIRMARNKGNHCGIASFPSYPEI
Chain of Dipeptidyl peptidase 1 (P53634 25-134 limits assumed): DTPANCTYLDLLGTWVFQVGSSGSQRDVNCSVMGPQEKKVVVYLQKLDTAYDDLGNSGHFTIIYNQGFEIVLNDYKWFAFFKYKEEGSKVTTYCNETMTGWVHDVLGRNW
Chain of Dipeptidyl peptidase 1 (P53634 231-394 limits assumed): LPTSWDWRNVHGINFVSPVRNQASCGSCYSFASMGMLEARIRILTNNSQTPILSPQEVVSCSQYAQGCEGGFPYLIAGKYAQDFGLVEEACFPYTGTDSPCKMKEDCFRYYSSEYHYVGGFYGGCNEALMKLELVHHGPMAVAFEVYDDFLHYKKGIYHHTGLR
Chain of Dipeptidyl peptidase 1 (P53634 395-463 limits assumed): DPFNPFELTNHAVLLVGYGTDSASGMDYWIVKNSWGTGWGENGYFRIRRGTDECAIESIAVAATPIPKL
Chain of Procathepsin L (P07711 whole entry): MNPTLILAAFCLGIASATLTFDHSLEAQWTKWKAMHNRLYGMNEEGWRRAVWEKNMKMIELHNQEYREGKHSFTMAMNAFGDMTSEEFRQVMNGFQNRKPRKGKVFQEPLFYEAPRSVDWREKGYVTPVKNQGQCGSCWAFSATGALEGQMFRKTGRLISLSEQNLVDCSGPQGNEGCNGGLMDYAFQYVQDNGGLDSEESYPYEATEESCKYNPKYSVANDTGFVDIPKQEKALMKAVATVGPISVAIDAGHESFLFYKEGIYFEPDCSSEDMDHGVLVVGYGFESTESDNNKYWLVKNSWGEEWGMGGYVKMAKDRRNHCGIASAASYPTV
Description for Cathepsin B: Inhibition of human recombinant Cathepsin B using fluorogenic peptide substrate
Description for Cathepsin K: Inhibition of human recombinant Cathepsin K using fluorogenic peptide substrate
Description for Cathepsin S: Inhibition of human recombinant Cathepsin S using fluorogenic peptide substrate
Description for Dipeptidyl peptidase 1: Inhibition of human recombinant Cathepsin C using fluorogenic peptide substrate
Description for Procathepsin L: Inhibition of human recombinant Cathepsin L using fluorogenic peptide substrate

The IC50 is the concentration at which inhibition is half-maximal. Read a low IC50 as inhibition by little substance. On to `CS(=O)(=O)N[C@H](C(=O)N[C@@H](Cc1ccccc1)C(=O)NCC(=O)NCC#N)c1cccc(Cl)c1`, for which the logPm in series [1] is recorded as -5.6. The results for the IC50 in series [2] and in [3] were 0.04 µM and 0.03 µM, respectively.

On to `COc1ccc(C(=O)NCC(=O)NCC#N)cc1C(=O)Cc1cc(Cl)cc(Cl)c1`, for which the IC50 in [2] stood at 2.74 µM; in series [3], 1.1 µM.

As for `COc1ccc(C(=O)NCC(=O)NCC#N)cc1C(=O)C(C)c1cc(Cl)cc(Cl)c1` (configuration not stated), the IC50 stood at 0.95 µM in series [2] and 0.31 µM in [3].

In general, thermodynamic solubility refers to solubility found after equilibrating the solid with the medium. With `COc1ccc(C(=O)NCC(=O)NCC#N)cc1C(=O)C(C)(C)c1cc(Cl)cc(Cl)c1`, the logPm in series [1] is given as -5. Also, the thermodynamic solubility in series [4] worked out at 50 µM (≈ 23.1 µg/mL). The IC50 was greater than 100 µM against Dipeptidyl peptidase 1; 0.04 µM in series [2]; 0.03 µM in series [3]; greater than 100 µM against Cathepsin B; greater than 100 µM on Procathepsin L; greater than 100 µM at Cathepsin S. Besides, the IC50 against Cathepsin K was greater than 100 µM.

In turn, `CN(C)CCOc1ccc(C(=O)NCC(=O)NCC#N)cc1C(=O)C(C)(C)c1cc(Cl)cc(Cl)c1` returned a logPm in series [1] of -5.5. In addition, the solubility (thermodynamic) in [4] was greater than 1000 µM. Moreover, the IC50 on Dipeptidyl peptidase 1 is greater than 100 µM; in series [2] it was 0.01 µM; in series [3], 0.007 µM; at Cathepsin B, greater than 100 µM; on Procathepsin L it was 100 µM; against Cathepsin S, greater than 100 µM. This molecule also gave an IC50 on Cathepsin K greater than 100 µM.

For orientation: EC50 means the concentration needed to bring the measured effect to its halfway point. `COc1ccc(C(=O)NCc2ccnc(C#N)n2)cc1C(=O)C(C)(C)c1cc(Cl)cc(Cl)c1`: the IC50 against Dipeptidyl peptidase 1 was found to be 66 µM; in [2] it was 0.0006 µM; in series [3], 0.0002 µM; on Cathepsin B it was 8.1 µM; on Procathepsin L, 5.6 µM; on Cathepsin S it was 1 µM. The midpoint of inhibition against Cathepsin K, the IC50, lay at 9.5 µM. Besides, the EC50 in the series on Human adenovirus 5 was greater than 50 µM.

In turn, `CN(C)CCOc1ccc(C(=O)NCc2ccnc(C#N)n2)cc1C(=O)C(C)(C)c1cc(Cl)cc(Cl)c1` displayed a logPm in series [1] of -4.2. In series [4], this molecule yielded a solubility (thermodynamic) of 490 µM (≈ 265 µg/mL). For the same molecule, the IC50 is 18 µM against Dipeptidyl peptidase 1; 0.0001 µM in series [2]; 0.0001 µM in series [3]; 81 µM against Cathepsin B; greater than 11 µM at Procathepsin L; 24 µM against Cathepsin S. For the same molecule, it took 19 µM to reach half-maximal inhibition against Cathepsin K (IC50). Besides, the EC50 with Human adenovirus 5 is 3.9 µM.

`COc1ccc(C(=O)NCC(=O)NC/C=C/S(C)(=O)=O)cc1C(=O)C(C)(C)c1cc(Cl)cc(Cl)c1`: in [1], the logPm was -4.1. Further, the IC50 on Dipeptidyl peptidase 1 was greater than 100 µM; in series [2] it was 0.001 µM; in [3], 0.001 µM; against Cathepsin B it was greater than 100 µM; against Procathepsin L, greater than 100 µM; against Cathepsin S, greater than 100 µM. Further, the IC50 on Cathepsin K is greater than 100 µM.

The molecule `CC(C)(C)[C@H](NC(=O)Cc1cc(Cl)cc(Cl)c1)C(=O)NCC(=O)NC/C=C/S(C)(=O)=O` registered a logPm in [1] of -5.6. Moreover, the IC50 was greater than 100 µM at Dipeptidyl peptidase 1; 0.01 µM in [2]; 0.01 µM in [3]; greater than 100 µM at Cathepsin B; greater than 100 µM against Procathepsin L; greater than 100 µM at Cathepsin S. The IC50 against Cathepsin K is 95 µM. Moreover, the EC50 in the series on Human adenovirus 5 came to 4.5 µM.

As to `CCN[C@H](C(=O)N[C@H](C(=O)NCC(=O)NC/C=C/S(C)(=O)=O)C(C)(C)C)c1cc(Cl)cc(Cl)c1`, the IC50 against Dipeptidyl peptidase 1 was greater than 100 µM; in series [2] it was less than 0.001 µM; in [3] it was less than 0.001 µM; at Cathepsin B, greater than 100 µM; on Procathepsin L, greater than 100 µM; against Cathepsin S, greater than 100 µM. The same molecule had an IC50 against Cathepsin K of 73 µM. In the series with Human adenovirus 5, the EC50 was 31 µM.

Consider `CC[C@H](C(=O)N[C@H]1CCN(CC(=O)NC/C=C/S(C)(=O)=O)C1=O)c1cc(Cl)cc(Cl)c1`, for which the logPm in series [1] is recorded as -5.5. Further, the IC50 against Dipeptidyl peptidase 1 is greater than 100 µM; in series [2], 0.004 µM; in [3], 0.002 µM; on Cathepsin B it was greater than 100 µM; at Procathepsin L it was greater than 100 µM; against Cathepsin S it was greater than 100 µM. On Cathepsin K, this molecule showed an IC50 greater than 100 µM. Also, the EC50 in the series on Human adenovirus 5 stood at 8.9 µM.
